{"source": "PubChem BioAssay AID256", "about": "(DTP/NCI, 2004)", "system": "CD2F1 mice, L1210 leukemia ip, survival T/C", "assay": "NCI In Vivo Anticancer Drug Screen. Data for tumor model L1210 Leukemia (intraperitoneal) in CD2F1 (CDF1) mice", "conditions": "higher = longer survival", "summary_of_the_method": "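Tumor-bearing mice (transplanted tumor) were split into treated and vehicle control groups, and the measured endpoint of each treated group was divided by that of its vehicle controls.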", "key": {"[1]": {"conditions": "endpoint: mean survival time, dose: 50.0 mg/kg/injection, schedule: Q01DX009 (ip), vehicle: saline with Tween-80"}, "[2]": {"conditions": "endpoint: mean survival time, dose: 100.0 mg/kg/injection, schedule: Q01DX009 (ip), vehicle: saline with Tween-80"}, "[3]": {"conditions": "endpoint: mean survival time, dose: 200.0 mg/kg/injection, schedule: Q01DX009 (ip), vehicle: saline with Tween-80"}, "[4]": {"conditions": "endpoint: mean survival time, dose: 100.0 mg/kg/injection, schedule: Q01DX001 (ip), vehicle: saline with Tween-80"}, "[5]": {"conditions": "endpoint: mean survival time, dose: 200.0 mg/kg/injection, schedule: Q01DX001 (ip), vehicle: saline with Tween-80"}, "[6]": {"conditions": "endpoint: mean survival time, dose: 400.0 mg/kg/injection, schedule: Q01DX001 (ip), vehicle: saline with Tween-80"}, "[7]": {"conditions": "endpoint: mean survival time, dose: 400.0 mg/kg/injection, schedule: Q01DX009 (ip), vehicle: saline with Tween-80"}, "[8]": {"conditions": "endpoint: mean survival time, dose: 100.0 mg/kg/injection, schedule: Q01DX009 (ip), vehicle: saline"}, "[9]": {"conditions": "endpoint: mean survival time, dose: 100.0 mg/kg/injection, schedule: Q04DX003 (ip), vehicle: saline with Tween-80"}, "[10]": {"conditions": "endpoint: mean survival time, dose: 200.0 mg/kg/injection, schedule: Q04DX003 (ip), vehicle: saline with Tween-80"}, "[11]": {"conditions": "endpoint: mean survival time, dose: 100.0 mg/kg/injection, schedule: Q01DX001 (ip), vehicle: saline"}, "[12]": {"conditions": "endpoint: mean survival time, dose: 200.0 mg/kg/injection, schedule: Q01DX001 (ip), vehicle: saline"}, "[13]": {"conditions": "endpoint: mean survival time, dose: 200.0 mg/kg/injection, schedule: Q01DX009 (ip), vehicle: saline"}, "[14]": {"conditions": "endpoint: mean survival time, dose: 100.0 mg/kg/injection, schedule: Q04DX003 (ip), vehicle: saline"}, "[15]": {"conditions": "endpoint: mean survival time, dose: 200.0 mg/kg/injection, schedule: Q04DX003 (ip), vehicle: saline"}}, "note": "Several values for one entry are separate records, joined by “and”; a condition that tells them apart may be missing. Equal values may be shown once. Toxic doses and inconclusive results are not listed."}
{"compound": "Fc1cc(F)c(F)c(-c2c(F)c(F)cc(F)c2F)c1F", "values": [{"measurement": "T/C", "setting": "[1]", "value": "103 % of control"}, {"measurement": "T/C", "setting": "[2]", "value": "103 % of control"}, {"measurement": "T/C", "setting": "[3]", "value": "96 % of control"}]}
{"compound": "Cc1ccc(C(=O)C(F)(F)F)cc1", "values": [{"measurement": "T/C", "setting": "[4]", "value": "104 % of control"}, {"measurement": "T/C", "setting": "[5]", "value": "101 % of control"}, {"measurement": "T/C", "setting": "[6]", "value": "96 % of control"}]}
{"compound": "BrC1CC2CC1C1C=CCC21", "note": "(centres undefined)", "values": [{"measurement": "T/C", "setting": "[2]", "value": "100 % of control"}, {"measurement": "T/C", "setting": "[3]", "value": "101 % of control"}, {"measurement": "T/C", "setting": "[7]", "value": "101 % of control"}]}
{"compound": "O=S(=O)(O)c1ccccc1O", "values": [{"measurement": "T/C", "setting": "[8]", "value": "101 % of control"}]}
{"compound": "CC1=C(Br)C(=O)C(C(O)(C(F)(F)F)C(F)(F)F)C(C)(C)C1", "note": "(centres undefined)", "values": [{"measurement": "T/C", "setting": "[9]", "value": "96 % of control"}, {"measurement": "T/C", "setting": "[10]", "value": "96 % of control"}]}
{"compound": "Cc1ccc(S(=O)(=O)OC2(c3ccc(C(F)(F)F)cc3)C3CCC2CC3)cc1", "note": "(centres undefined)", "values": [{"measurement": "T/C", "setting": "endpoint: mean survival time, dose: 12.5 mg/kg/injection, schedule: Q04DX002 (ip), vehicle: saline with Tween-80", "value": "104 % of control"}, {"measurement": "T/C", "setting": "endpoint: mean survival time, dose: 25.0 mg/kg/injection, schedule: Q04DX002 (ip), vehicle: saline with Tween-80", "value": "101 % of control"}, {"measurement": "T/C", "setting": "endpoint: mean survival time, dose: 50.0 mg/kg/injection, schedule: Q04DX002 (ip), vehicle: saline with Tween-80", "value": "104 % of control"}]}
{"compound": "NCC1CC2C=CC1C2", "note": "(centres undefined)", "values": [{"measurement": "T/C", "setting": "[11]", "value": "100 % of control"}, {"measurement": "T/C", "setting": "[12]", "value": "93 % of control"}]}
{"compound": "O=C(NC1CCCCC1)NC1CCCCC1", "values": [{"measurement": "T/C", "setting": "[9]", "value": "100 % of control"}, {"measurement": "T/C", "setting": "[10]", "value": "98 % of control"}, {"measurement": "T/C", "setting": "endpoint: mean survival time, dose: 400.0 mg/kg/injection, schedule: Q04DX003 (ip), vehicle: saline with Tween-80", "value": "93 % of control"}]}
{"compound": "CC1C2CCC(C2)C1N", "note": "(centres undefined)", "values": [{"measurement": "T/C", "setting": "endpoint: mean survival time, dose: 50.0 mg/kg/injection, schedule: Q01DX009 (ip), vehicle: saline", "value": "99 % of control"}, {"measurement": "T/C", "setting": "[8]", "value": "99 % of control"}, {"measurement": "T/C", "setting": "[13]", "value": "99 % of control"}]}
{"compound": "CCN1CCC(CC)(CN2c3ccccc3Sc3ccc(Cl)cc32)C1", "note": "(centres undefined)", "values": [{"measurement": "T/C", "setting": "[14]", "value": "100 % of control"}, {"measurement": "T/C", "setting": "[15]", "value": "96 % of control"}]}
{"compound": "O=[N+]([O-])O.[La]", "values": [{"measurement": "T/C", "setting": "[1]", "value": "90 % of control"}, {"measurement": "T/C", "setting": "[2]", "value": "97 % of control"}, {"measurement": "T/C", "setting": "[9]", "value": "92 % of control"}, {"measurement": "T/C", "setting": "[14]", "value": "97 % of control"}, {"measurement": "T/C", "setting": "[3]", "value": "92 % of control"}, {"measurement": "T/C", "setting": "[10]", "value": "93 % of control"}, {"measurement": "T/C", "setting": "[15]", "value": "98 % of control"}]}
{"compound": "CCCCCCCCC/C(C)=N\\NC(=O)c1ccccc1", "values": [{"measurement": "T/C", "setting": "endpoint: mean survival time, dose: 100.0 mg/kg/injection, schedule: Q01DX009 (ip), vehicle: saline sonified", "value": "100 % of control"}, {"measurement": "T/C", "setting": "endpoint: mean survival time, dose: 400.0 mg/kg/injection, schedule: Q01DX009 (ip), vehicle: saline sonified", "value": "108 % of control"}]}
{"compound": "O=C(/C=C/c1ccccc1)N1CC2CCC(CC2)C1", "values": [{"measurement": "T/C", "setting": "[1]", "value": "94 % of control"}, {"measurement": "T/C", "setting": "[2]", "value": "94 % of control"}, {"measurement": "T/C", "setting": "[3]", "value": "91 % of control"}]}
{"compound": "CC12CCC(O)CC1=CCC1C2CCC2(C)C(O)CCC12", "note": "(centres undefined)", "values": [{"measurement": "T/C", "setting": "[4]", "value": "97 % of control"}, {"measurement": "T/C", "setting": "[5]", "value": "90 % of control"}, {"measurement": "T/C", "setting": "[6]", "value": "91 % of control"}]}
{"compound": "COC(=O)NCCNC(=O)OC", "values": [{"measurement": "T/C", "setting": "[11]", "value": "98 % of control"}, {"measurement": "T/C", "setting": "[12]", "value": "98 % of control"}, {"measurement": "T/C", "setting": "endpoint: mean survival time, dose: 400.0 mg/kg/injection, schedule: Q01DX001 (ip), vehicle: saline", "value": "101 % of control"}]}
{"compound": "CCOC(=O)c1c(NC(=O)CBr)sc(C)c1C", "values": [{"measurement": "T/C", "setting": "endpoint: mean survival time, dose: 75.0 mg/kg/injection, schedule: Q01DX001 (ip), vehicle: saline", "value": "104 % of control"}, {"measurement": "T/C", "setting": "endpoint: mean survival time, dose: 150.0 mg/kg/injection, schedule: Q01DX001 (ip), vehicle: saline", "value": "98 % of control"}, {"measurement": "T/C", "setting": "endpoint: mean survival time, dose: 300.0 mg/kg/injection, schedule: Q01DX001 (ip), vehicle: saline", "value": "104 % of control"}]}
{"compound": "CC(=O)N(C)c1ccc(C)cc1C", "values": [{"measurement": "T/C", "setting": "[2]", "value": "93 % of control"}, {"measurement": "T/C", "setting": "[3]", "value": "96 % of control"}, {"measurement": "T/C", "setting": "[7]", "value": "98 % of control"}]}
{"compound": "Brc1c(NC2=NCCN2)ccc2nccnc12", "values": [{"measurement": "T/C", "setting": "endpoint: median survival time, dose: 1.56 mg/kg/injection, schedule: Q01DX009 (ip), vehicle: saline", "value": "102 % of control"}, {"measurement": "T/C", "setting": "endpoint: median survival time, dose: 3.12 mg/kg/injection, schedule: Q01DX009 (ip), vehicle: saline", "value": "96 % of control and 111 % of control"}, {"measurement": "T/C", "setting": "endpoint: median survival time, dose: 6.25 mg/kg/injection, schedule: Q01DX009 (ip), vehicle: saline", "value": "115 % of control and 119 % of control and 109 % of control"}, {"measurement": "T/C", "setting": "endpoint: median survival time, dose: 100.0 mg/kg/injection, schedule: Q01DX009 (ip), vehicle: saline", "value": "118 % of control"}]}
{"compound": "NC(=O)N(CCO)CCO", "values": [{"measurement": "T/C", "setting": "[8]", "value": "111 % of control"}, {"measurement": "T/C", "setting": "[13]", "value": "107 % of control"}, {"measurement": "T/C", "setting": "endpoint: mean survival time, dose: 400.0 mg/kg/injection, schedule: Q01DX009 (ip), vehicle: saline", "value": "101 % of control"}]}
{"compound": "Cc1nc2[nH]c(=O)[nH]c(=O)c2[nH]1", "values": [{"measurement": "T/C", "setting": "endpoint: mean survival time, dose: 25.0 mg/kg/injection, schedule: Q01DX009 (ip), vehicle: saline with Tween-80", "value": "94 % of control"}, {"measurement": "T/C", "setting": "[1]", "value": "96 % of control"}, {"measurement": "T/C", "setting": "[2]", "value": "92 % of control"}]}
